# Laboratory results published in patent US12565490B2, “Inhibitors of Receptor Interacting Protein Kinase I for the treatment of disease” (Board of Regents, The University of Texas System, priority 2020, dated 2026).
# Tested on: human monocytic cell line U937
# Test: Human U937 cellular necroptosis assay
# Format: cell-based
# Conditions: U-937; U937 cells stimulated with 25 ng/mL human TNFalpha and 25 μM z-VAD-FMK; 22 hr; viability by Cell Titer-Glo 2.0; read-out: hU937 IC50
# Experimental: Human U937 Cellular Necroptosis Assay
# The human monocytic cell line U937 (CRL-1593.2) may be purchased from ATCC. The cells are routinely maintained in RPMI-1640 Medium (Gibco, Catalog #11875-093) supplemented with 10% heat inactivated fetal bovine serum (Gibco, Catalog #16140-071), 100 units/mL penicillin and 100 μg/mL streptomycin (Gibco, Catalog #15140-122), in a humidified incubator (37° C., 5% CO2). For the assay, cells are resuspended in RPMI-1640 phenol red free Media (Gibco, Catalog #11835-030) supplemented with 10% fetal bovine serum (Sigma, Catalog #F2442), 100 units/mL penicillin and 100 ug/mL streptomycin. Cells are stimulated with 25 ng/mL human TNFalpha (Cell Sciences, Catalog #CSI15659B) and 25 μM z-VAD-FMK (R&D Systems, Catalog #FMK001) followed by seeding 5000 cells per well in a volume of 40 μL to a white, CulturPlate-384 (Perkin Elmer, Catalog #6007680). Stock solutions of the test compounds are prepared in 100% DMSO (Sigma, Catalog #D2650) and serially diluted 1:3 using 100% DMSO. Compounds are additionally diluted 1:40 in assay medium, and 10 μL/well was transferred to the plate. Following the compound addition, the plate is incubated at 37° C. and 5% CO2 for 22 hr. After 22 hr, viability is assessed with the addition of 20 μL of Cell Titer-Glo 2.0 (Promega, Catalog #G9243). The tissue culture plate is shaken on an orbital shaker at 300 RPM for 15 minutes at room temperature in the dark. Luminescence is measured using a PerkinElmer Envision™ plate reader. IC50 values are calculated using a four-parameter logistic curve fit using Genedata Screener software. Compounds disclosed herein are expected to have activity in this assay.
row,SMILES,IC50 [nM]
1,"Cc1cnc(C(=O)N[C@H]2COc3ccc(CN4CCn5ncnc5C4)cc3N(C)C2=O)nc1-c1ccccc1 [Example 39, (S)-N-(7-((5,6-dihydro-[1,2,4]triazolo[1,5-a]pyrazin-7(8H)-yl)methyl)-5-methyl-4-oxo-2,3,4,5-tetrahydro-benzo[b][1,4]oxazepin-3-yl)-5-methyl-4-phenylpyrimidine-2-carboxamide]",12.9
2,"Cc1ccc(C(=O)Nc2cccc(Cl)c2F)nc1Br [Example 25, 6-bromo-N-(3-chloro-2-fluorophenyl)-5-methyl-picolinamide]",≥ 10000
3,"CN1C(=O)[C@@H](NC(=O)c2ncc(Cl)c(-c3cc(F)cc(F)c3)n2)COc2cc(Cl)cnc21 [Example 99, (S)-5-chloro-N-(8-chloro-5-methyl-4-oxo-2,3,4,5-tetrahydropyrido [3,2-b]-[1,4]oxazepin-3-yl)-4-(3,5-difluorophenyl)pyrimidine-2-carboxamide]",13.9
4,"Cc1cnc(C(=O)N[C@H]2COc3cc(C#N)ccc3N(C)C2=O)nc1-c1ccccc1 [Example 5, (S)-N-(8-cyano-5-methyl-4-oxo-2,3,4,5-tetrahydro-benzo[b][1,4]oxazepin-3-yl)-5-methyl-4-phenylpyrimidine-2-carboxamide]",15.1
5,"CN1C(=O)[C@@H](NC(=O)c2ncc(Cl)c(-c3ccc(F)cc3)n2)COc2cccnc21 [Example 49, (S)-5-chloro-4-(4-fluorophenyl)-N-(5-methyl-4-oxo-2,3,4,5-tetrahydro-pyrido[3,2-b][1,4]oxazepin-3-yl)pyrimidine-2-carboxamide]",8.35
6,"Cc1ccc(-c2nc(C(=O)N[C@H]3CCc4ccccc4NC3=O)ncc2C)cc1 [Example 13, (S)-5-methyl-N-(2-oxo-2,3,4,5-tetrahydro-1H-benzo[b]azepin-3-yl)-4-(p-tolyl)pyrimidine-2-carboxamide]",27.6
7,"Cc1cnc(C(=O)N[C@H]2COc3cc(C#N)ccc3N(C)C2=O)nc1N1CCN(C)CC1 [Example 31, (S)-N-(8-cyano-5-methyl-4-oxo-2,3,4,5-tetrahydro-benzo[b][1,4]oxazepin-3-yl)-5-methyl-4-(4-methylpiperazin-1-yl)pyrimidine-2-carboxamide]",≥ 10000
8,"Cc1cnc(C(=O)N[C@H]2COc3cccnc3N(C)C2=O)nc1C12CCC(CC1)CC2 [Example 57, (S)-4-(bicyclo[2.2.2]octan-1-yl)-5-methyl-N-(5-methyl-4-oxo-2,3,4,5-tetrahydro-pyrido[3,2-b][1,4]oxazepin-3-yl)pyrimidine-2-carboxamide]",90.9
9,"CN1C(=O)[C@@H](NC(=O)c2ncc(Cl)c(-c3ccc(F)cc3F)n2)COc2ccc(-c3ccnn3C)cc21 [Example 149, (S)-5-chloro-4-(2,4-difluorophenyl)-N-(5-methyl-7-(1-methyl-1H-pyrazol-5-yl)-4-oxo-2,3,4,5-tetrahydrobenzo[b]-[1,4]oxazepin-3-yl)pyrimidine-2-carboxamide]",19.8
10,"Cc1cnc(C(=O)N[C@H]2CCc3ccccc3NC2=O)nc1-c1ccc(F)cc1 [Example 9, (S)-4-(4-fluorophenyl)-5-methyl-N-(2-oxo-2,3,4,5-tetrahydro-1H-benzo[b]azepin-3-yl)pyrimidine-2-carboxamide]",10.2
11,"CN1C(=O)[C@@H](NC(=O)c2ncc(Cl)c(-c3cc(F)ccc3F)n2)COc2cc(Cl)cnc21 [Example 98, (S)-5-chloro-N-(8-chloro-5-methyl-4-oxo-2,3,4,5-tetrahydropyrido[3,2-b]-[1,4]oxazepin-3-yl)-4-(2,5-difluorophenyl)pyrimidine-2-carboxamide]",7.25
12,"O=C(NC1CCc2ccccc2NC1=O)c1nc(-c2ccccc2)c(Cl)cc1Cl (centres unmarked) [Example 8, 3,5-dichloro-N-(2-oxo-2,3,4,5-tetrahydro-1H-benzo[b]azepin-3-yl)-6-phenylpicolinamide]",354
13,"CN1C(=O)[C@@H](NC(=O)c2ncc(Cl)c(-c3cc(F)ccc3F)n2)COc2ccc(NCC3(CCl)CCOCC3)cc21 [Example 142, (S)-5-chloro-N-(7-(((4-(chloromethyl)tetrahydro-2H-pyran-4-yl)methyl)amino)-5-methyl-4-oxo-2,3,4,5-tetrahydrobenzo[b]-[1,4]oxazepin-3-yl)-4-(2,5-difluorophenyl)pyrimidine-2-carboxamide]",19
14,"CN1C(=O)[C@@H](NC(=O)c2ncc(S(C)(=N)=O)c(-c3ccccc3)n2)COc2cc(Cl)cnc21 (stereo partly drawn) [Example 127, N-((S)-8-chloro-5-methyl-4-oxo-2,3,4,5-tetrahydro-pyrido[3,2-b][1,4]oxazepin-3-yl)-5-(S-methylsulfonimidoyl)-4-phenylpyrimidine-2-carboxamide]",3950
15,"Cc1cnc(C(=O)N[C@H]2COc3cc(Cl)cnc3N(C)C2=O)nc1-c1ccc2nccn2c1 [Example 124, (S)-N-(8-chloro-5-methyl-4-oxo-2,3,4,5-tetrahydropyrido[3,2-b][1,4]oxazepin-3-yl)-4-(imidazo[1,2-a]pyridin-6-yl)-5-methylpyrimidine-2-carboxamide]",165
16,"[2H]C([2H])([2H])N1C(=O)[C@@H](NC(=O)c2ncc(C)c(-c3ccccc3F)n2)COc2cc(F)cnc21 [Example 170, (S)—N-(8-fluoro-5-(methyl-d3)-4-oxo-2,3,4,5-tetrahydropyrido[3,2-b][1,4]oxazepin-3-yl)-4-(2-fluorophenyl)-5-methylpyrimidine-2-carboxamide]",15.8
17,"Cc1ccc(C(=O)Nc2cccc(Cl)c2F)nc1-c1cc(F)ccc1F [Example 35, N-(3-chloro-2-fluorophenyl)-6-(2,5-difluorophenyl)-5-methylpicolinamide]",≥ 10000
18,"Cc1cc(F)cc(F)c1-c1ccnc(C(=O)N[C@H]2COc3cc(Cl)cnc3N(C)C2=O)n1 [Example 90, (S)-N-(8-chloro-5-methyl-4-oxo-2,3,4,5-tetrahydro-pyrido[3,2-b][1,4]oxazepin-3-yl)-4-(2,4-difluoro-6-methylphenyl)pyrimidine-2-carboxamide]",83.5
19,"CN1C(=O)[C@@H](NC(=O)c2ncc(Cl)c(-c3cccc(F)c3)n2)COc2cc(F)cnc21 [Example 70, (S)-5-chloro-N-(8-fluoro-5-methyl-4-oxo-2,3,4,5-tetrahydropyrido[3,2-b]-[1,4]oxazepin-3-yl)-4-(3-fluorophenyl)pyrimidine-2-carboxamide]",9.94
20,"CN1C(=O)[C@@H](NC(=O)c2ncc(Cl)c(-c3ccc(F)cc3F)n2)COc2ccc(NCC3(CCl)CCOCC3)cc21 [Example 141, (S)-5-chloro-N-(7-(((4-(chloromethyl)tetrahydro-2H-pyran-4-yl)methyl)amino)-5-methyl-4-oxo-2,3,4,5-tetrahydrobenzo[b]-[1,4]oxazepin-3-yl)-4-(2,4-difluorophenyl)pyrimidine-2-carboxamide]",14.5
21,"Cc1cnc(C(=O)N[C@H]2COc3ccc(S(C)(=O)=O)cc3N(C)C2=O)nc1-c1ccccc1F [Example 171, (S)-4-(2-fluorophenyl)-5-methyl-N-(5-methyl-7-(methylsulfonyl)-4-oxo-2,3,4,5-tetrahydrobenzo[b][1,4]oxazepin-3-yl)pyrimidine-2-carboxamide]",120
22,"Cc1cc(F)ccc1-c1nc(C(=O)N[C@H]2COc3cc(Cl)cnc3N(C)C2=O)ncc1F [Example 92, (S)-N-(8-chloro-5-methyl-4-oxo-2,3,4,5-tetrahydro-pyrido[3,2-b][1,4]oxazepin-3-yl)-5-fluoro-4-(4-fluoro-2-methylphenyl)pyrimidine-2-carboxamide]",15.2
23,"CN1C(=O)[C@@H](NC(=O)c2ncc(Cl)c(-c3ccccc3)n2)COc2cc(C#N)ccc21 [Example 24, (S)-5-chloro-N-(8-cyano-5-methyl-4-oxo-2,3,4,5-tetrahydro-benzo[b][1,4]oxazepin-3-yl)-4-phenylpyrimidine-2-carboxamide]",19.2
24,"Cc1cnc(C(=O)N[C@H]2COc3cc(F)cnc3N(C)C2=O)nc1C1CCOCC1 [Example 87, (S)-N-(8-fluoro-5-methyl-4-oxo-2,3,4,5-tetrahydro-pyrido[3,2-b][1,4]oxazepin-3-yl)-5-methyl-4-(tetrahydro-2H-pyran-4-yl)pyrimidine-2-carboxamide]",157
25,"Cc1cnc(C(=O)N[C@H]2COc3cc(Br)cnc3N(C)C2=O)nc1-c1ccccc1 [Example 29, (S)-N-(8-bromo-5-methyl-4-oxo-2,3,4,5-tetrahydropyrido[3,2-b][1,4]oxazepin-3-yl)-5-methyl-4-phenylpyrimidine-2-carboxamide]",11.7
26,"Cc1cnc(C(=O)N[C@H]2COc3cccnc3N(C)C2=O)nc1C1CCOCC1 [Example 58, (S)-5-methyl-N-(5-methyl-4-oxo-2,3,4,5-tetrahydro-pyrido[3,2-b][1,4]oxazepin-3-yl)-4-(tetrahydro-2H-pyran-4-yl)pyrimidine-2-carboxamide]",229
